Results as given in PMC7571065, “Design, Synthesis, In Vitro and In Silico Studies of New Thiazolylhydrazine-Piperazine Derivatives as Selective MAO-A Inhibitors” (Molecules, 2020).
Entries after “also recorded” stand apart in the source; their conditions may differ. Where two headings read alike, the source gives them in different places.

Tests used:
MAO-A [1] = molecular target: T1, MAO-A (Homo sapiens, UniProt P21397); experiment: In vitro fluorometric MAO-A inhibition assay (Ampliflu Red, tyramine); assay type: biochemical; conditions: for inhibition at 0.001 µM / inhibition at 0.01 µM / inhibition at 0.1 µM / inhibition at 1 µM / inhibition at 10 µM: read-out: MAO-A % Inhibition; for IC50: mean ± SD, read-out: IC50 against MAO-A
T1 construct: purchased Sigma-Aldrich (Steinheim, Germany)
T1 sequence (P21397 1-527): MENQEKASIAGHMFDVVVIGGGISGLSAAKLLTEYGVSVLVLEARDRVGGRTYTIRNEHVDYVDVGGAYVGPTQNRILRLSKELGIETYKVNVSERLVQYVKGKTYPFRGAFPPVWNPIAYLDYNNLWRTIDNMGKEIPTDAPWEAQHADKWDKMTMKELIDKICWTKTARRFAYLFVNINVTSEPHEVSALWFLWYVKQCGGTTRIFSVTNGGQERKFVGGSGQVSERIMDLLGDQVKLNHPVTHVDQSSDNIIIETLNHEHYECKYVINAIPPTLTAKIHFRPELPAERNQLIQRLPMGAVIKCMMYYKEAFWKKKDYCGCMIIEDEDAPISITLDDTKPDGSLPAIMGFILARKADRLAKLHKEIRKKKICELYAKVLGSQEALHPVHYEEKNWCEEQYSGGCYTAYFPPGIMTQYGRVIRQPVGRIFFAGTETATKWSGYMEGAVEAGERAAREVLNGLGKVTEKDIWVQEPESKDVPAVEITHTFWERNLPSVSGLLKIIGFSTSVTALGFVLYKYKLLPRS

recombinant MAO-B = molecular target: T2, recombinant MAO-B (Homo sapiens, UniProt P27338); experiment: In vitro fluorometric MAO-B inhibition assay (Ampliflu Red, tyramine); assay type: biochemical
T2 construct: purchased Sigma-Aldrich (Steinheim, Germany)
T2 sequence (P27338 1-520): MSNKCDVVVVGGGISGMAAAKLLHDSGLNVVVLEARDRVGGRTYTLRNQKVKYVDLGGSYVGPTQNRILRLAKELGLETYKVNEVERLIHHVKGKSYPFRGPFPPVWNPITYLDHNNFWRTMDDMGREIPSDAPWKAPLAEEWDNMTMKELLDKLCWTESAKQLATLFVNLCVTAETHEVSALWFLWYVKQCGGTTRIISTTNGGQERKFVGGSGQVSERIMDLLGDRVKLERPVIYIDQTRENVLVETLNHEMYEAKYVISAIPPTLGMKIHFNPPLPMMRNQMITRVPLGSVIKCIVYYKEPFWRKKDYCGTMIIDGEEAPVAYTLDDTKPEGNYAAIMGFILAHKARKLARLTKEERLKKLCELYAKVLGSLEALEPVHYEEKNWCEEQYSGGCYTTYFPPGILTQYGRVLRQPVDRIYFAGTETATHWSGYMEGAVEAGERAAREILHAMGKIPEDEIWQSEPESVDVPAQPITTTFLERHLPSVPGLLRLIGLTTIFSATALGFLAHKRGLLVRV

MAO-A [2] = molecular target: T1, MAO-A; experiment: Enzyme kinetic studies (Lineweaver-Burk and secondary plot); assay type: biochemical
Procedure: The same materials were used in the MAO inhibition assay. […] All processes were evaluated in quadruplicate. The results were analyzed by means of Microsoft Office Excel 2013 as Lineweaver-Burk diagrams. […] of the Lineweaver-Burk plots were replotted versus the inhibitor concentration, and the Ki values were determined from the x-axis intercept as Ki.
The MAO-A inhibition mechanism was defined by conducting enzyme kinetics experiments utilizing a protocol close to that of the MAO inhibition assay. […] To estimate the type of inhibition of this compound, linear Lineweaver-Burk graphs were used. The velocity curves of the substrates were reported in the absence and presence of compound 3e. In each case, the initial velocity measurements were collected at various concentrations of substrates (tyramine) varying from 20 μM to 0.625 μM.
According to the Lineweaver-Burk plots, the type of inhibition consists of two general classes: reversible and irreversible. Mixed-type, uncompetitive, competitive and noncompetitive inhibition types are included in the reversible inhibition. […] Competitive inhibition is seen if the lines intersect on the y-axis, and the slopes and x-intercepts are different. On the contrary, non-competitive inhibition has the opposite result: the plotted lines have the same x-intercept but there are diverse slopes and y-intercepts.

Cytotoxicity MTT assay = assay type: cell-based; conditions: mouse, NIH/3T3 mouse embryonic fibroblast cells, tested 1 mM to 0.000316 mM, read-out: IC50 NIH/3T3 Cell Line
Procedure: The NIH/3T3 mouse embryonic fibroblast cell line (ATCC® CRL-1658 ™, London, UK) was used for cytotoxicity assays. The incubation period of NIH/3T3 cells was based on the supplier’s recommendation. NIH/3T3 cells were seeded at 1 × 10^4 cells into each well of 96-well plates. MTT assay was carried out in accordance with the standards previously described manner.

SMILES	inhibition at 1000 µM (MAO-A [1]; 10^−3 M)	inhibition at 100 µM (MAO-A [1]; 10^−4 M)	melting point	inhibition at 1000 µM (recombinant MAO-B; 10^−3 M)	inhibition at 100 µM (recombinant MAO-B; 10^−4 M)	further results
C#CCN(C)CCCOc1ccc(Cl)cc1Cl [Clorgiline, clorgiline, reference compound]	–	–	–	–	–	inhibition at 0.001 µM (MAO-A [1]): 22.5 ± 0.736%; inhibition at 0.01 µM (MAO-A [1]): 34.2 ± 0.841%; inhibition at 0.1 µM (MAO-A [1]): 65.2 ± 0.997%; inhibition at 1 µM (MAO-A [1]): 78.5 ± 1.02%; inhibition at 10 µM (MAO-A [1]): 87.6 ± 1.46%
Cc1ccc(-c2csc(NN=Cc3ccc(N4CCN(C)CC4)cc3)n2)cc1 [Compound 3b, 2-{2-[4-(4-Methylpiperazin-1-yl)benzylidene]hydrazinyl}-4-(4-methylphenyl)thiazole]	71 ± 1.11%	31.5 ± 0.732%	252 to 254 °C	34.6 ± 0.886%	27.6 ± 0.649%	–
CN1CCN(c2ccc(C=NNc3nc(-c4ccc(C#N)cc4)cs3)cc2)CC1 [Compound 3d, 2-{2-[4-(4-Methylpiperazin-1-yl)benzylidene]hydrazinyl}-4-(4-cyanophenyl)thiazole]	90.2 ± 2.04%	84.4 ± 1.81%	234 to 235 °C	36.6 ± 0.903%	26 ± 0.836%	inhibition at 10 µM (MAO-A [1]; 10^−5 M): 81.1 ± 1.94%; inhibition at 1 µM (MAO-A [1]; 10^−6 M): 79 ± 1.25%; inhibition at 0.1 µM (MAO-A [1]; 10^−7 M): 49.6 ± 0.811%; inhibition at 0.01 µM (MAO-A [1]; 10^−8 M): 30.6 ± 0.699%; inhibition at 0.001 µM (MAO-A [1]; 10^−9 M): 18.1 ± 0.593%; IC50 (MAO-A [1]): 0.117 ± 0.004 µM
CN1CCN(c2ccc(C=NNc3nc(-c4ccc(Br)cc4)cs3)cc2)CC1 [Compound 3h, 2-{2-[4-(4-Methylpiperazin-1-yl)benzylidene]hydrazinyl}-4-(4-bromophenyl)thiazole]	70.8 ± 1.32%	37.9 ± 0.796%	253 to 255 °C	34.4 ± 0.824%	22.1 ± 0.796%	–
Cc1ccc(-c2csc(NN=Cc3ccc(N4CCN(C)CC4)cc3)n2)c(C)c1 [Compound 3j, 2-{2-[4-(4-Methylpiperazin-1-yl)benzylidene]hydrazinyl}-4-(2,4-dimethylphenyl)thiazole]	72.3 ± 1.03%	38.1 ± 0.798%	238 to 240 °C	28.1 ± 0.901%	20 ± 0.792%	–
CN1CCN(c2ccc(C=NNc3nc(-c4ccc(Cl)cc4Cl)cs3)cc2)CC1 [Compound 3l, 2-{2-[4-(4-Methylpiperazin-1-yl)benzylidene]hydrazinyl}-4-(2,4-chlorophenyl)thiazole]	–	–	–	–	–	MAO-A % Inhibition (MAO-A [1]; 10^−3 M): 73.521 ± 1.180%; MAO-A % Inhibition (MAO-A [1]; 10^−4 M): 40.578 ± 0.914%; MAO-B % Inhibition (recombinant MAO-B; 10^−3 M): 33.667 ± 0.991%; MAO-B % Inhibition (recombinant MAO-B; 10^−4 M): 21.373 ± 0.769%

Continued, in another order:

inhibition at 1000 µM (MAO-A [1]; 10^−3 M)	inhibition at 100 µM (MAO-A [1]; 10^−4 M)	melting point	inhibition at 1000 µM (recombinant MAO-B; 10^−3 M)	inhibition at 100 µM (recombinant MAO-B; 10^−4 M)	SMILES	further results
68.1 ± 1.03%	34.3 ± 0.851%	254 to 255 °C	32.3 ± 0.985%	25 ± 0.721%	CN1CCN(c2ccc(C=NNc3nc(-c4ccccc4)cs3)cc2)CC1 [Compound 3a, 2-{2-[4-(4-Methylpiperazin-1-yl)benzylidene]hydrazinyl}-4-phenylthiazole]	–
92.1 ± 2.22%	87.7 ± 1.87%	226 to 228 °C	30.3 ± 0.812%	21.5 ± 0.879%	COc1ccc(-c2csc(NN=Cc3ccc(N4CCN(C)CC4)cc3)n2)cc1 [Compound 3c, 2-{2-[4-(4-Methylpiperazin-1-yl)benzylidene]hydrazinyl}-4-(4-methoxyphenyl)thiazole]	inhibition at 10 µM (MAO-A [1]; 10^−5 M): 75.4 ± 1.43%; inhibition at 1 µM (MAO-A [1]; 10^−6 M): 71 ± 1.09%; inhibition at 0.1 µM (MAO-A [1]; 10^−7 M): 48.3 ± 0.869%; inhibition at 0.01 µM (MAO-A [1]; 10^−8 M): 30.9 ± 0.711%; inhibition at 0.001 µM (MAO-A [1]; 10^−9 M): 21.8 ± 0.638%; IC50 (MAO-A [1]): 0.188 ± 0.008 µM
95.3 ± 1.9%	90.8 ± 1.73%	–	39.1 ± 0.81%	28.2 ± 0.791%	CN1CCN(c2ccc(C=NNc3nc(-c4ccc([N+](=O)[O-])cc4)cs3)cc2)CC1 [Compound 3e, 2-{2-[4-(4-Methylpiperazin-1-yl)benzylidene]hydrazinyl}-4-(4-nitrophenyl)thiazole]	inhibition type (MAO-A [2]; Lineweaver-Burk plots): competitive and reversible; also recorded: reversible and competitive; Ki (MAO-A [2]; secondary plot, substrate tyramine, read-out: Ki (steady-state inhibition constant)): 0.011 µM; inhibition at 10 µM (MAO-A [1]; 10^−5 M): 85 ± 1.03%; inhibition at 1 µM (MAO-A [1]; 10^−6 M): 82.4 ± 1.39%; inhibition at 0.1 µM (MAO-A [1]; 10^−7 M): 63.9 ± 0.893%; inhibition at 0.01 µM (MAO-A [1]; 10^−8 M): 42.6 ± 0.835%; inhibition at 0.001 µM (MAO-A [1]; 10^−9 M): 23 ± 0.715%; IC50 (MAO-A [1]): 0.057 ± 0.002 µM; IC50 (Cytotoxicity MTT assay): > 1000 µM
75.9 ± 1.24%	40.7 ± 0.98%	247 to 249 °C	30.7 ± 0.912%	24.7 ± 0.854%	CN1CCN(c2ccc(C=NNc3nc(-c4ccc(F)cc4)cs3)cc2)CC1 [Compound 3f, 2-{2-[4-(4-Methylpiperazin-1-yl)benzylidene]hydrazinyl}-4-(4-fluorophenyl)thiazole]	–
73.7 ± 1.11%	33.5 ± 0.833%	249 to 250 °C	31.2 ± 0.789%	24 ± 0.623%	CN1CCN(c2ccc(C=NNc3nc(-c4ccc(Cl)cc4)cs3)cc2)CC1 [Compound 3g, 2-{2-[4-(4-Methylpiperazin-1-yl)benzylidene]hydrazinyl}-4-(4-chlorophenyl)thiazole]	–
66.2 ± 0.972%	41.5 ± 0.87%	275 to 276 °C	30.6 ± 0.836%	21.5 ± 0.809%	CN1CCN(c2ccc(C=NNc3nc(-c4ccc(-c5ccccc5)cc4)cs3)cc2)CC1 [Compound 3i, 2-{2-[4-(4-Methylpiperazin-1-yl)benzylidene]hydrazinyl}-4-([1,1’-biphenyl]-4-yl)thiazole]	–
80 ± 1.3%	35.1 ± 0.833%	250 to 251 °C	29.6 ± 0.782%	23.2 ± 0.876%	CN1CCN(c2ccc(C=NNc3nc(-c4ccc(F)cc4F)cs3)cc2)CC1 [Compound 3k, 2-{2-[4-(4-Methylpiperazin-1-yl)benzylidene]hydrazinyl}-4-(2,4-difluorophenyl)thiazole]	–
